Results reported in publication PMC10987501, “The antihyperglycemic potential of pyrazolobenzothiazine 1, 1-dioxide novel derivative in mice using integrated molecular pharmacological approach” (Scientific Reports, 2024).
“Also recorded” adds a separate entry of the source.

What was measured:
BALB/c mice [1] = assay: Biochemical investigation of blood in alloxan-induced diabetic mice; type: in vivo; design: Serum insulin level: unit not given here; details: for Serum creatinine / Cholesterol in blood / HbA1c, % of glycated haemoglobin: treated group; for Serum creatinine: diabetic control 1.9 mg/dL; for Cholesterol in blood: diabetic control 120 mg/dL; for HbA1c, % of glycated haemoglobin: diabetic control 9%; for Serum insulin level: normal mice about 15 µM/L
Protocol: (§1) All experimental protocols adhered to the guidelines outlined in the NIH Guide for Care and Use of Laboratory Animals and the ARRIVE guidelines for animal experimentation. The Animal Care and Use Committee (ACUC) of Government College University Faisalabad (GCUF-2021-09) provided approval for the study. For in vivo study, BALB/c mice (weight 26–33 g) were acquired from the Department of Pharmacy and kept in the optimized environment (12 h dark, 12 h light) with a regular pellet diet and normal tab water. Diabetes induction in mice was done through a standard protocol reported by[21] with slight amendments. Alloxan monohydrate 150 mg/kg (following the body weight of mice) was liquified in normal saline and injected intraperitoneally in mice fasted for 16 h[22],[23]. Furthermore, screening of mice was done based on their blood glucose levels and mice with blood glucose levels more than 1.26 g/L were considered diabetic, and therefore taken for further experiment/examination. The mice diagnosed with diabetes were classified into five groups and five mice in each group. […] Two doses were selected because they indicate how the organism's response changes at different levels of exposure. This information is crucial for determining safe dosage levels for humans or animals.
For biochemical testing and histological examination, mice from each group were collected, and data were produced for different testing parameters, including fasting blood glucose, serum creatinine, serum insulin, HbA1c, triglyceride and cholesterol. A Countour TS glucometer was used to measure mice's fasting blood glucose levels. While Clinical Chemistry Reagents SRL (CCR) kit was used to measure serum creatinine and triglyceride levels. Moreover, the VITRO SCIENT kit was utilized to measure the serum insulin, cholesterol and HbA1c levels. For histological analysis, mice were sacrificed and their organs (liver, kidney and pancreas) were washed with cold saline and preserved in a 10% formalin solution. A compound microscope from the Department of Physiology, Government College University Faisalabad, was used for tissue investigation under a controlled and organized environment. Pictures of tissue samples were taken through OPTIKA software.

α-amylase [2] = assay: α-amylase inhibition assay (starch substrate, DNSA); type: biochemical
Protocol: ELISA plate was used for inhibition assay and it was loaded with 40 µL of the sample. Enzyme prepared in 0.02 M sodium phosphate buffer with pH 6.9 (40 µL) was further added to wells. The solution in wells was kept on incubation at 37 °C for 10 min. Moreover, 40 µL starch solution prepared in 1% DMSO was added to the solution and put on incubation for 10 min at 25 °C. At last, to stop the reaction, 100 µL of DNSA reagent was added to the solution. The mixture was put in a boiling water bath for 5 min and cooled down at room temperature after incubation. For dilution of the reaction mixture, 400 µL of distilled water was added to the solution, and the absorbance of the reaction mixture was measured at 540 nm wavelength. To calculate the percentage inhibition the following formula was used. Inhibition%=B-S/B∗100
(§2) At this point, the B and S denote absorbance for the blank and samples. Blank contains only DMSO instead of sample.

α-glucosidase [3] = assay: α-glucosidase inhibition assay (PNPG substrate); type: biochemical; details: for α-glucosidase % inhibition: 10 μL (500 µM) sample
Protocol: To carry out this reaction, 10 μL (500 µM) of 10 mM sample solution (prepared in DMSO) was added to ELISA 96 microwell plate. Then, 40 μL of 0.5U/ml α glucosidase was mixed by adding 120 μL of 0.1M phosphate buffer with a pH value of 7.4. The solution was incubated at 37 °C for 5 min. The reaction proceeded further by adding 40 μL of 5 mM substrate solution (PNPG) and incubation was done for half an hour at 37 °C. After performing the incubation microplate reader was used to read the absorbance of the reaction mixture at 405 nm wavelength. […] The inhibition percentage of the sample and positive control were calculated using the following formula. Inhibition%=B-S/B∗100
as §2

α-glucosidase [4] = assay: Kinetics study (α-glucosidase), Lineweaver–Burk plot; type: biochemical
Protocol: (p-nitrophenyl-α-D-glucoside) was used for reaction. In addition, varying concentrations (0.1 mM, 0.25 mM, 0.5 mM, 0.75 mM, 1 mM) sample/inhibitor [V] was used. The type of inhibition was determined by the Lineweaver–Burk plot, while the Michaelis Menten equation was used to find the value of the inhibition constant. Vo=VmaxS/Km+S 1/Vo=Km+S/VmaxS=km/Vmax1/S+1/Vmax
(§3) The initial rate of reaction is indicated by V0, Michaelis Menten's constant signifies km, Km/Vmax represents to slope, and 1/Vmax denotes the y-intercept. The value of the inhibitory constant was calculated by plotting the secondary graph. Straight-line produced by slope versus [V] intersecting x-axis indicates ki value while ki′ was produced by intersecting line plotted between y-intercept and [V].

α-amylase [5] = assay: Kinetics study (α-amylase), Lineweaver–Burk plot; type: biochemical
Protocol: Varying concentrations (0.25%, 0.5%, 1%, 1.5%, 2%) of substrate [S] (starch) were used with constant enzyme concentration. Same as substrate, varying concentration (1 mM, 3 mM, 5 mM, 7 mM, 9 mM) of the inhibitor [V] was used. Lineweaver–Burk plots were used to determine the type of enzyme inhibition and the Michaelis Menten equation was used to find the value of inhibition constant. Vo=VmaxS/Km+S 1/Vo=Km+S/VmaxS=km/Vmax1/S+1/Vmax
as §3, with “initial reaction” for “initial”, “rate” for “rate of reaction”, “represents” for “represents to”

BALB/c mice [6] = assay: Histology of liver, kidney and pancreas and side effects in alloxan-induced diabetic mice; type: in vivo
Protocol: as §1, with “animals. […]” for “animals.”

Structure (SMILES) | Serum creatinine (BALB/c mice [1]) | Cholesterol in blood (BALB/c mice [1]) | HbA1c, % of glycated haemoglobin (BALB/c mice [1]) | α-amylase % inhibition (α-amylase [2]) | α-glucosidase % inhibition (α-glucosidase [3]) | Type of inhibition, α-glucosidase (α-glucosidase [4]) | Serum insulin level (BALB/c mice [1]; double dose (7.8 mg/kg)) | Fasting blood sugar level (BALB/c mice [1]; single and double doses (3.9 and 7.8 mg/kg), diabetic control > 300 mg/dL) | Serum insulin level (BALB/c mice [1]; single dose (3.9 mg/kg)) | Type of inhibition, α-amylase (α-amylase [5]) | IC50 (α-amylase [2]) | Side effects in the mice model (BALB/c mice [6]; after administration to mice) | Histology: necrosis / toxicity in liver, kidney and pancreas (BALB/c mice [6]; diabetic mice dissected after 21 days of treatment) | IC50 (α-glucosidase [3]) | α-glucosidase % inhibition (α-glucosidase [3]; 500 µM)
C[C@H]1O[C@H](O[C@H]2[C@H](O)[C@@H](O)[C@@H](O[C@H]3[C@H](O)[C@@H](O)C(O)O[C@@H]3CO)O[C@@H]2CO)[C@H](O)[C@@H](O)[C@@H]1N[C@H]1C=C(CO)[C@@H](O)[C@H](O)[C@H]1O (some centres unmarked) [Acarbose, reference compound] | 0.8 mg/dL | 100 mg/dL | 5% | 33 ± 0.042% | 37 ± 0.026% | competitive inhibition |  |  |  |  |  |  |  |  | 
C/C(=N\NC(=O)C1=C(O)c2ccccc2S(=O)(=O)N1)c1ccccc1 [Compound S1, (E)-4-Hydroxy-N′-(1-phenylethylamine)-2H-benzo[e][1,2]thiazine-3-carbohydrazide1,1-dioxide] | 0.6 mg/dL | 85 mg/dL | 3% | 46 ± 0.091% |  | competitive type of inhibition; also recorded: competitively | 30 | 110 mg/dL | 25 | competitive type of inhibition; also recorded: competitively | 8.89 µM | no significant side effect | low necrosis rate; also recorded: less toxic in the kidney, liver, and pancreas; also recorded: no toxicity within the liver and pancreatic tissues; also recorded: minimum rate of necrosis and toxicity | 3.91 µM | 55 ± 0.047%
